{"source": "patent US12728147B2", "about": "“Composition for preventing or treating inflammatory disease comprising hydrolysis extract of pulsatilla koreana and anemone raddeana as active ingredient” (priority 2020, dated 2026)", "key": {"[1]": {"system": "human umbilical vein endothelial cells (HUVECs)", "settings": "cited from earlier work"}, "[2]": {"system": "rats with edema induced with carrageenan", "format": "in vivo", "settings": "for Average edema reduction percent: average of the reduction percent values after 2, 3 and 4 hours", "description": "Each experimental group was composed of three Wistar rats, and the edema was formed by subplantar injection of 0.1 ml of a 1% (w/v) lambda carrageenan solution to the left hind paw of the rats. By the same method, 0.1 ml of physiological saline was injected into the right hind paw. […] For the control, 2 ml of physiological saline was used. As for Comparative Example 1, the group was orally administered with 10 mg/kg indomethacin. The medicinal effect was assayed as percentage (%) by measuring the volume of edema from 2 hours to 4 hours in 1 hour units after carrageenan administration. [{1−S/C}×100] (S: edema volume in the preparation administration group, C: edema volume in the carrageenan administration group) The volume of edema was measured by water plethysmography. As for Preparation 16, the anti-inflammatory effect was observed by direct injection of […] into the point of carrageenan injection on the rats. This method was used considering that in the vertebral skeletal diseases, drugs are often directly injected into affected areas in clinical practice, and the method can also be applied to the herbal acupuncture in oriental medicine. In the present invention, 0.2 ml of Preparation 14 was selected and directly injected twice at an interval of 30 minutes to the point of carrageenan injection on the left hind paw of the rats (Comparative Example 6). That is, the injection was conducted at 150 minutes and 180 minutes after carrageenan injection, and the anti-inflammatory assay was conducted 240 minutes (4 hours after carrageenan injection). Comparative Example 2 was a Preparation of 1 mg of HcolA1 mixed with 1 mg of HcolA. The control was used for a physiological saline administration group.\nThe edema size reduction percent (%) was expressed as the ratio of the edema size by each preparation after each hour relative to the size of edema (control) by carrageenan injection after each hour as shown below, and the average reduction percent of edema was expressed as an average value of the reduction percent values of each preparation after 2, 3, or 4 hours. Edema size reduction percent (%)={1−(edema size by each preparation/edema size by control)}×100"}, "[3]": {"system": "carrageenan-induced rat paw inflammation", "settings": "literature report; cited from earlier work"}}, "note": "Where two headings read alike, the source gives them in different places.", "data": [{"smiles": "COC1C(=O)Oc2ccccc2C1(COC(=O)C=C(C)C)OC", "note": "(centres unmarked) [4-senecioyloxymethyl-3,4-dimethoxycoumarin]", "values": [{"measurement": "Inhibition of HUVEC angiogenesis", "setting": "[1]; at 1 μg/ml", "value": 53, "unit": "%"}]}, {"smiles": "COc1ccc2c(c1)c(CC(=O)O)c(C)n2C(=O)c1ccc(Cl)cc1", "note": "[Comparative Example 1, Indomethacin]", "values": [{"measurement": "Edema size reduction percent, 2 hours", "setting": "[2]; 2 hours after carrageenan, relative to control", "value": "0.012(63) %"}, {"measurement": "Edema size reduction percent, 3 hours", "setting": "[2]; 3 hours after carrageenan, relative to control", "value": "0.043(64) %"}, {"measurement": "Edema size reduction percent, 4 hours", "setting": "[2]; 4 hours after carrageenan, relative to control (Comparative Example 6: direct injection into point of carrageenan injection)", "value": "0.023(63) %"}, {"measurement": "Edema size over time (hour) after treatment, 4 hours", "setting": "[2]; 4 hours after carrageenan, 1 ml i.p. 1 h before edema induction (Comparative Example 1 oral; Comparative Example 6: 0.2 ml injected directly twice at 150 and 180 min), mean", "value": 0.321}, {"measurement": "Average edema reduction percent", "setting": "[2]", "value": "(63.3) %"}, {"measurement": "Average edema reduction percent", "setting": "[2]; listed as indomethacin", "value": 63.3, "unit": "%"}]}, {"smiles": "C[C@@H]1O[C@@H](O[C@H]2[C@H](O[C@H]3CC[C@]4(C)[C@H]5CC=C6[C@@H]7CC(C)(C)CC[C@]7(C(=O)O[C@@H]7O[C@H](CO[C@@H]8O[C@H](CO)[C@@H](O[C@@H]9O[C@@H](C)[C@H](O)[C@@H](O)[C@H]9O)[C@H](O)[C@H]8O)[C@@H](O)[C@H](O)[C@H]7O)CC[C@@]6(C)[C@]5(C)CC[C@H]4C3(C)C)OC[C@H](O[C@@H]3O[C@H](CO)[C@@H](O)[C@H](O)[C@H]3O)[C@@H]2O)[C@H](O)[C@H](O)[C@H]1O", "note": "[HcolE, hederacolchiside E]", "values": [{"measurement": "Anti-inflammatory effect on carrageenan-induced rat paw inflammation", "setting": "[3]", "value": "insignificant"}]}, {"smiles": "C[C@@H]1O[C@@H](O[C@H]2[C@H](O[C@H]3CC[C@@]4(C)[C@@H](CC[C@]5(C)[C@@H]4CC=C4[C@@H]6CC(C)(C)CC[C@]6(C(=O)O[C@@H]6O[C@H](CO[C@@H]7O[C@H](CO)[C@@H](O[C@@H]8O[C@@H](C)[C@H](O)[C@@H](O)[C@H]8O)[C@H](O)[C@H]7O)[C@@H](O)[C@H](O)[C@H]6O)CC[C@]45C)[C@]3(C)CO)OC[C@H](O[C@@H]3O[C@H](CO)[C@@H](O)[C@H](O)[C@H]3O)[C@@H]2O)[C@H](O)[C@H](O)[C@H]1O", "note": "[HcolF, hederacolchiside F]", "values": [{"measurement": "Anti-inflammatory effect on carrageenan-induced rat paw inflammation", "setting": "[3]", "value": "confirmed in a predetermined range"}]}, {"smiles": "CCC[C@H](CC/C=C/C=C/C#CC#C/C=C\\CO)OC(C)=O", "note": "[acetylbupleurotoxin]", "values": [{"measurement": "Inhibition of HUVEC angiogenesis", "setting": "[1]; at a concentration of 30 μg/ml", "value": 100, "unit": "%"}]}, {"smiles": "CCC[C@H](O)CC/C=C/C=C/C#CC#C/C=C\\CO", "note": "[bupleurotoxin]", "values": [{"measurement": "Inhibition of HUVEC angiogenesis", "setting": "[1]; at a concentration of 30 μg/ml", "value": 100, "unit": "%"}]}, {"smiles": "COc1cc([C@@H]2c3cc4c(cc3C[C@H]3COC(=O)[C@@H]32)OCO4)cc(OC)c1OC", "note": "[deoxypodophyllotoxin]", "values": [{"measurement": "Inhibition of HUVEC angiogenesis", "setting": "[1]; at a concentration of 3 ng/ml", "value": 100, "unit": "%"}]}, {"smiles": "C[C@@H]1O[C@@H](O[C@H]2[C@H](O[C@H]3CC[C@]4(C)[C@H]5CC=C6[C@@H]7CC(C)(C)CC[C@]7(C(=O)O)CC[C@@]6(C)[C@]5(C)CC[C@H]4C3(C)C)OC[C@H](O[C@@H]3O[C@H](CO)[C@@H](O)[C@H](O)[C@H]3O)[C@@H]2O)[C@H](O)[C@H](O)[C@H]1O", "note": "[hederacolchiside A1]", "values": [{"measurement": "Inhibition of HUVEC angiogenesis", "setting": "[1]; at a concentration of 2 μg/ml", "value": 100, "unit": "%"}]}, {"smiles": "C[C@@H]1O[C@@H](O[C@H]2[C@H](O[C@H]3CC[C@@]4(C)[C@@H](CC[C@]5(C)[C@@H]4CC=C4[C@@H]6CC(C)(C)CC[C@]6(C(=O)O)CC[C@]45C)[C@]3(C)CO)OC[C@H](O[C@@H]3O[C@H](CO)[C@@H](O)[C@H](O)[C@H]3O)[C@@H]2O)[C@H](O)[C@H](O)[C@H]1O", "note": "[hederacolchiside A]", "values": [{"measurement": "Inhibition of HUVEC angiogenesis", "setting": "[1]; at a concentration of 2 μg/ml", "value": "did not show such activity"}]}]}
